Here are results for 14 compounds from ChEMBL document CHEMBL1201862, “PubChem BioAssay data set” (2004).

Molecules are shown by their SMILES.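 Cells were grown in 96-well plates and exposed to each compound for 48 hours at five concentrations; endpoints were interpolated linearly between bracketing concentrations, or set to the highest concentration if not reached. Abbreviation: GI50, concentration required for 50% inhibition of growth.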 Active and inactive are the calls of the source. Rule as the data show it: active = GI50 up to about 1.1 µM and inactive = higher.

Test systems include LOX IMVI; SF-539; ACHN; SK-MEL-5; A549; COLO 205; SNB-19; NCI-H522; K562; NCI-H23; RPMI-8226; A498; CCRF-CEM; SF-268; SW-620; SR.
Holding throughout (assay): NCI tumour cell line growth inhibition, 48 h

In the case of `O=C(O)C1C2CC3CC2CC31` (stereo not drawn), the GI50 in the test with LOX IMVI, in the test on SF-539, with ACHN, in the test on SK-MEL-5, with A549 and with COLO 205 was > 100 µM (inactive) each time. The GI50 in the test on SNB-19, in the test on NCI-H522, in the test on K562, with NCI-H23, with RPMI-8226 and with A498 was > 100 µM (inactive) each time. For the same compound, the GI50 in the test with CCRF-CEM, in the test with SF-268 and in the test on SW-620 was > 100 µM (inactive) each time.

As for `CC1(c2cccc(N)c2)C2C(=O)NC(=O)C1C(=O)NC2=O` (stereo not drawn), the GI50 is 28.1 µM (inactive) in the test on LOX IMVI; 28.6 µM (inactive) with SF-539; 28.2 µM (inactive) with ACHN; 18.5 µM (inactive) in the test with SK-MEL-5; 33.9 µM (inactive) with A549; 23.7 µM (inactive) with COLO 205. Besides, the GI50 with SNB-19 was 29.2 µM (inactive); with NCI-H522 it was 19.7 µM (inactive); in the test on K562 it was 24.2 µM (inactive); in the test with NCI-H23, 22.1 µM (inactive); in the test on RPMI-8226, 16 µM (inactive); with A498, 23.4 µM (inactive). Besides, the GI50 in the test with CCRF-CEM is 22.4 µM (inactive); with SF-268, 35.7 µM (inactive); with SW-620 it was 34 µM (inactive).

Regarding `CCC12CC[C@H](C#N)N3CCc4c(n(c5ccccc45)C(=O)C1)C32` (stereo partly drawn), the GI50 in the test on LOX IMVI is 14.1 µM (inactive); in the test with SF-539, 17.5 µM (inactive); in the test with ACHN it was > 10 µM (inactive); with SK-MEL-5, 12.7 µM (inactive); in the test on A549, 15.9 µM (inactive); in the test on COLO 205, 19.1 µM (inactive). The GI50 in the test on SNB-19 was > 10 µM (inactive); in the test with K562 it was 5.28 µM (inactive); with NCI-H23, 15.4 µM (inactive); with RPMI-8226, 17.9 µM (inactive); in the test with A498, 13.3 µM (inactive); in the test on CCRF-CEM, 12.3 µM (inactive). Further, the GI50 with SF-268 is 17.9 µM (inactive); in the test on SW-620 it was 14.9 µM (inactive).

Take `C[C@@H]1C[C@@H]([C@H](O)CC2CC(=O)NC(=O)C2)C(=O)[C@@H](C)C1` [CYCLOHEXIMIDE]: the GI50 in the test on LOX IMVI was 0.0374 µM (active); with SF-539 it was 0.0431 µM (active); with ACHN it was 0.0291 µM (active); with SK-MEL-5, 0.0248 µM (active); in the test with A549, 0.0366 µM (active); in the test with COLO 205 it was 0.0352 µM (active). The GI50 was 0.0416 µM (active) with SR; 0.0984 µM (active) with SNB-19; 0.0395 µM (active) with NCI-H522; 0.0528 µM (active) in the test with K562; 0.0516 µM (active) in the test on NCI-H23; 0.0362 µM (active) in the test on RPMI-8226. The GI50 in the test on CCRF-CEM was < 0.0186 µM (active); with SF-268, 0.0438 µM (active); in the test with SW-620 it was 0.0462 µM (active).

As for `COc1cc2cnc3c4cc(OC(C)C)c(OC)cc4ccc3c2cc1OC`, the GI50 in the test with SF-539, with ACHN, in the test with SK-MEL-5, in the test on A549, with COLO 205 and in the test with SNB-19 was > 100 µM (inactive) in each case. The GI50 in the test on NCI-H522, in the test with K562, in the test with NCI-H23, with RPMI-8226, with A498 and with CCRF-CEM was > 100 µM (inactive) each time. Also, the GI50 in the test on SF-268 and in the test with SW-620 was > 100 µM (inactive) each time.

As to `C/C(CCn1[nH]c(=O)ccc1=O)=N\NC(=O)C(N)=O`, the GI50 with LOX IMVI, in the test on SF-539, in the test with ACHN, in the test on SK-MEL-5, in the test on A549 and in the test with COLO 205 was > 100 µM (inactive) in each case. Also, the GI50 in the test with SNB-19, with NCI-H522, in the test with K562, with NCI-H23, with A498 and with SF-268 was > 100 µM (inactive) each time. Further, the GI50 in the test with SW-620 was > 100 µM (inactive).

Consider `CCOC(=O)C[C@@]12CCCNC1(C)CCc1ccccc12` (stereo partly drawn), for which the GI50 in the test with LOX IMVI, in the test with SF-539, in the test with ACHN, with SK-MEL-5, in the test on A549 and in the test with COLO 205 was > 100 µM (inactive) in each case. Also, the GI50 with SNB-19, in the test with K562, with RPMI-8226, with CCRF-CEM and in the test on SW-620 was > 100 µM (inactive) throughout.

Consider `Cc1nc(Nc2ccc([N+](=O)[O-])cc2)sc1C(/C=C/c1ccc(N(C)C)cc1)=N/NC(=O)c1ccccc1`, for which the GI50 in the test with LOX IMVI was 36.6 µM (inactive); in the test with SF-539, 42.9 µM (inactive); in the test with ACHN, 39.6 µM (inactive); in the test with A549 it was 46.5 µM (inactive); in the test with COLO 205, > 100 µM (inactive); in the test with SR, 41.7 µM (inactive). Also, the GI50 in the test with SNB-19 was 62.2 µM (inactive); with NCI-H522, 31 µM (inactive); in the test with K562, 18.5 µM (inactive); with NCI-H23 it was 47.8 µM (inactive); in the test with CCRF-CEM, 38.3 µM (inactive); in the test with SF-268, 43 µM (inactive). Further, the GI50 with SW-620 was 45.6 µM (inactive).

For `Nc1nc(Cl)cc(NCCCCCCCCNc2cc(Cl)nc(N)n2)n1`, the GI50 was 3.82 µM (inactive) with LOX IMVI; 28.7 µM (inactive) with SF-539; 0.221 µM (active) in the test with ACHN; 0.675 µM (active) in the test on SK-MEL-5; 3.56 µM (inactive) in the test on A549; 26.4 µM (inactive) in the test on COLO 205. Moreover, the GI50 in the test with SR was 3.61 µM (inactive); with SNB-19, > 100 µM (inactive); with NCI-H522 it was 1.13 µM (inactive); in the test with K562 it was 2.2 µM (inactive); in the test on NCI-H23, 1.22 µM (inactive); in the test on RPMI-8226, 2.4 µM (inactive). Besides, the GI50 with CCRF-CEM is 73.3 µM (inactive); in the test on SF-268, 36.8 µM (inactive); in the test with SW-620, 36.8 µM (inactive).

Take `CC(CCCOC(c1ccccc1)(c1ccccc1)c1ccccc1)OC(=O)Nc1ccccc1` (stereo not drawn): the GI50 in the test with LOX IMVI was 12.7 µM (inactive); with SF-539, 17.8 µM (inactive); in the test on ACHN it was 13.6 µM (inactive); with SK-MEL-5, 14.1 µM (inactive); in the test with A549 it was 11.1 µM (inactive); in the test on COLO 205, 18.2 µM (inactive). Also, the GI50 is 18.6 µM (inactive) with SR; 11.7 µM (inactive) with NCI-H522; 11.3 µM (inactive) in the test on K562; 9.84 µM (inactive) with NCI-H23; 15 µM (inactive) in the test on RPMI-8226; 14.6 µM (inactive) in the test with CCRF-CEM. Further, the GI50 in the test with SF-268 is 12.8 µM (inactive); with SW-620 it was 14.4 µM (inactive).

Turning to `O=C1OC(=O)C23CSCC12C1C=CC3O1` (stereo not drawn), the GI50 in the test on LOX IMVI, in the test on SF-539, in the test with ACHN, in the test with SK-MEL-5, in the test on A549 and in the test on COLO 205 was > 100 µM (inactive) each time. The GI50 in the test with SNB-19, in the test on NCI-H522, with K562, in the test with NCI-H23, in the test on RPMI-8226 and in the test on A498 was > 100 µM (inactive) each time. The GI50 in the test on CCRF-CEM, in the test with SF-268 and in the test on SW-620 was > 100 µM (inactive) in each case.

As for `CCOC(=O)c1cn(Cc2ccccc2)c(=O)n1Cc1ccccc1`, the GI50 in the test on LOX IMVI was > 100 µM (inactive); with SF-539, > 100 µM (inactive); in the test with ACHN, > 100 µM (inactive); in the test with SK-MEL-5, > 100 µM (inactive); in the test with A549 it was 75 µM (inactive); with COLO 205 it was > 100 µM (inactive). Also, the GI50 is > 100 µM (inactive) with SNB-19; > 100 µM (inactive) in the test on NCI-H522; 52 µM (inactive) in the test on K562; > 100 µM (inactive) in the test with NCI-H23; 40.2 µM (inactive) in the test with RPMI-8226; > 100 µM (inactive) in the test on A498. The GI50 in the test with CCRF-CEM is 62.8 µM (inactive); in the test with SF-268, > 100 µM (inactive); in the test on SW-620, > 100 µM (inactive).

With `C/C(CN1C(=O)c2ccccc2C1=O)=N\NS(=O)(=O)c1cccc([N+](=O)[O-])c1`, the GI50 in the test with SF-539, in the test with ACHN, in the test with SK-MEL-5, in the test on A549, in the test on COLO 205 and in the test on SNB-19 was > 100 µM (inactive) each time. The GI50 in the test on NCI-H522, with K562, in the test with NCI-H23, in the test with RPMI-8226, with A498 and in the test with CCRF-CEM was > 100 µM (inactive) each time. The GI50 with SF-268 and in the test on SW-620 was > 100 µM (inactive) each time.

Consider `COc1cc(C=O)c(-c2cc3c(cc2C=O)OCO3)c(OC)c1OC`, for which the GI50 in the test on LOX IMVI is 85.7 µM (inactive); with SF-539, 81.8 µM (inactive); with ACHN, > 290 µM (inactive); with SK-MEL-5 it was 94.6 µM (inactive); with A549 it was 93.8 µM (inactive); with COLO 205 it was 92.5 µM (inactive). For the same compound, the GI50 in the test on SR was 93.1 µM (inactive); in the test on SNB-19, 202 µM (inactive); with NCI-H522, 41.8 µM (inactive); with K562, 87.1 µM (inactive); in the test with NCI-H23, 63.1 µM (inactive); in the test on RPMI-8226 it was 96.6 µM (inactive). For the same compound, the GI50 with CCRF-CEM is 88.1 µM (inactive); in the test with SF-268, 101 µM (inactive); with SW-620 it was 94.6 µM (inactive).
